Experimental findings from PubChem BioAssay (NCI) are described below.

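Following 48 hours of exposure in 96-well plates, responses at five concentrations were used to interpolate endpoints linearly. GI50 marks 50% less growth. TGI marks complete inhibition of growth.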

Some test systems named below: ACHN renal; BT-549 breast; HL-60(TB) leukemia; HOP-62 NSCLC; NCI-H522 lung; RPMI-8226 leukemia; SF-539 CNS; UACC-257 melanoma; NCI-H23 lung; SK-MEL-5 melanoma.
Common to all, as to test: inhibition of tumour cell growth, NCI panel, 48 h

With `O=C(/C=C/c1c[nH]c2ccccc12)c1ccccc1O`, the TGI is 25.2 µM in the assay with ACHN renal; 28.3 µM in the assay with BT-549 breast; above 100 µM in the assay on HL-60(TB) leukemia; 28.1 µM in the assay on HOP-62 NSCLC; 23 µM in the assay on NCI-H522 lung; 62.1 µM with RPMI-8226 leukemia. Further, the values for the TGI in the assay with SF-539 CNS and in the assay with UACC-257 melanoma were 25.1 µM and 31.5 µM, respectively.

With `CC(C)CC(=O)O[C@H]1C(=O)O[C@@H]2C[C@H]3[C@H](C)C(=O)C(O[C@@H]4O[C@H](CO)[C@@H](O)[C@H](O)[C@H]4O)=C[C@]3(C)[C@H]3[C@@H](O)[C@H](O)[C@]4(C(=O)O)OC[C@]32[C@@H]14`, the GI50 in the assay with ACHN renal is above 100 µM; in the assay with HL-60(TB) leukemia it was 41.3 µM; with HOP-62 NSCLC, 44.7 µM; in the assay on SF-539 CNS, 20.5 µM; with SK-MEL-5 melanoma, 28.4 µM; with UACC-257 melanoma, above 100 µM. For the same molecule, the TGI in the assay with ACHN renal is above 100 µM; with BT-549 breast, above 100 µM; in the assay with HL-60(TB) leukemia, above 100 µM; in the assay with HOP-62 NSCLC, above 100 µM; with NCI-H23 lung, above 100 µM; in the assay with SF-539 CNS, 53.3 µM. Moreover, the TGI in the assay on SK-MEL-5 melanoma and in the assay on UACC-257 melanoma was above 100 µM each time.

As to `CCn1nc(C#Cc2c(C)ccc3c(Nc4ccc(Cl)cc4)nccc23)c2c(N)ncnc21`, the GI50 with ACHN renal is 5.31 µM; in the assay with BT-549 breast it was 5.27 µM; in the assay with HL-60(TB) leukemia, 0.598 µM; in the assay on HOP-62 NSCLC, 4.01 µM; with NCI-H23 lung, 3.58 µM; in the assay with NCI-H522 lung, 2.39 µM. Besides, the GI50 in the assay with RPMI-8226 leukemia was 3.77 µM; in the assay on SK-MEL-5 melanoma it was 2.14 µM; in the assay on UACC-257 melanoma, 3.54 µM. Moreover, the TGI is above 100 µM in the assay with ACHN renal; above 100 µM with BT-549 breast; above 100 µM in the assay on HL-60(TB) leukemia; 78 µM with HOP-62 NSCLC; above 100 µM with NCI-H23 lung; 86.9 µM in the assay with NCI-H522 lung. Further, the TGI in the assay on RPMI-8226 leukemia was above 100 µM; in the assay on SK-MEL-5 melanoma it was 6.55 µM; with UACC-257 melanoma, 38.7 µM.

For the molecule `O=c1c2cc(F)ccc2sc2c(NCCCNCCO)nc3ccc(F)cc3c12`, the GI50 in the assay with ACHN renal was 1.54 µM; with BT-549 breast it was 11.1 µM; in the assay on HOP-62 NSCLC it was 1.61 µM; with NCI-H23 lung, 1.81 µM; in the assay with NCI-H522 lung, 1.91 µM; with RPMI-8226 leukemia, 2.3 µM. Further, the GI50 in the assay on SF-539 CNS was 1.68 µM; in the assay on SK-MEL-5 melanoma, 1.7 µM; in the assay with UACC-257 melanoma it was 1.98 µM. The TGI stood at 2.89 µM in the assay on ACHN renal; 26.7 µM in the assay on BT-549 breast; 3.53 µM in the assay with HOP-62 NSCLC; 3.28 µM in the assay on NCI-H23 lung; 4.03 µM with NCI-H522 lung; 5.1 µM in the assay with RPMI-8226 leukemia. The TGI came to 3.12 µM in the assay with SF-539 CNS, 3.15 µM in the assay with SK-MEL-5 melanoma and 4.03 µM in the assay with UACC-257 melanoma.

As to `Cc1ccc(CNc2ccc(Cl)cc2NCc2ccc(C)c(O)c2)cc1O`, the GI50 is 6.19 µM with ACHN renal; 6.96 µM with BT-549 breast; 7.65 µM with HL-60(TB) leukemia; 8.85 µM in the assay with HOP-62 NSCLC; 7.33 µM with NCI-H23 lung; 6.59 µM with NCI-H522 lung. For the same molecule, the values for the GI50 in the assay with RPMI-8226 leukemia, in the assay with SF-539 CNS and with UACC-257 melanoma were 6.75 µM, 7.31 µM and 8.12 µM, respectively. Moreover, the TGI with ACHN renal came to 12.6 µM; in the assay on BT-549 breast, 14.1 µM; in the assay with HL-60(TB) leukemia, 19.2 µM; with HOP-62 NSCLC, 16.8 µM; with NCI-H23 lung it was 14.8 µM; in the assay with NCI-H522 lung, 13.9 µM. For the same molecule, the TGI with RPMI-8226 leukemia was determined as 21.9 µM; in the assay on SF-539 CNS, 14.4 µM; with UACC-257 melanoma, 15.6 µM.

Regarding `COc1ccc2c(c1)OCC1c3cc(OC)ccc3OC21` (stereo not given), the GI50 was 53.1 µM in the assay with ACHN renal; 34.4 µM with BT-549 breast; 4.93 µM in the assay with HL-60(TB) leukemia; 95 µM in the assay with HOP-62 NSCLC; 36.2 µM in the assay with NCI-H23 lung; 21.5 µM in the assay on RPMI-8226 leukemia. The GI50 in the assay with SF-539 CNS was 97.7 µM; in the assay on SK-MEL-5 melanoma, 28.4 µM; in the assay with UACC-257 melanoma, above 100 µM. Besides, the TGI with ACHN renal, in the assay on BT-549 breast, in the assay on HL-60(TB) leukemia, in the assay with HOP-62 NSCLC, in the assay with NCI-H23 lung and with RPMI-8226 leukemia was above 100 µM throughout. The TGI was above 100 µM in the assay with SF-539 CNS, 86.1 µM in the assay with SK-MEL-5 melanoma and above 100 µM in the assay with UACC-257 melanoma.

As for `CCn1c(O)c(C(=O)Nc2cccs2)c(=O)n(CC)c1=S`, the TGI in the assay with ACHN renal was 63.2 µM; in the assay on HL-60(TB) leukemia, 40 µM; with HOP-62 NSCLC, 47.6 µM; with NCI-H23 lung it was 30.5 µM; in the assay with NCI-H522 lung, 38.4 µM; in the assay on RPMI-8226 leukemia, 55.1 µM. In addition, the TGI is 33.1 µM in the assay on SF-539 CNS, 38.5 µM in the assay with SK-MEL-5 melanoma and 56 µM in the assay with UACC-257 melanoma.

In the case of `CC1SC(c2ccc(OCc3ccccc3)cc2)N(NC(=O)C(O)(c2ccccc2)c2ccccc2)C1=O` (stereo not given), the GI50 is 2.74 µM in the assay on ACHN renal; 5.45 µM in the assay with BT-549 breast; 1.85 µM in the assay with HL-60(TB) leukemia; 2.01 µM in the assay on HOP-62 NSCLC; 2.7 µM with NCI-H23 lung; 2.05 µM in the assay with RPMI-8226 leukemia. For the same molecule, the GI50 was 14 µM in the assay on SF-539 CNS, 8.26 µM with SK-MEL-5 melanoma and 7.39 µM with UACC-257 melanoma. Besides, the TGI was determined as 9.38 µM in the assay with ACHN renal; 22.4 µM with BT-549 breast; 5.02 µM with HL-60(TB) leukemia; 8.1 µM in the assay with HOP-62 NSCLC; 13.8 µM in the assay with NCI-H23 lung; 6.13 µM with RPMI-8226 leukemia. For the same molecule, the TGI in the assay on SF-539 CNS worked out at 42.6 µM; in the assay with SK-MEL-5 melanoma, 20.7 µM; in the assay with UACC-257 melanoma, 21.3 µM.

Regarding `Cc1nn(-c2ccccc2)c2c1[C@@H](C)[C@H]1CC3(CC4(C)C[C@@H]3C1(C)c1c(C)nn(-c3ccccc3)c1N4C)N2C` (stereo not given in full), the GI50 in the assay with BT-549 breast is above 100 µM; in the assay with HOP-62 NSCLC it was 18.3 µM; in the assay on NCI-H23 lung, above 100 µM; with NCI-H522 lung it was 3.88 µM; with SF-539 CNS it was above 100 µM. Besides, the TGI in the assay on BT-549 breast, with HOP-62 NSCLC, in the assay on NCI-H23 lung, in the assay on NCI-H522 lung and in the assay with SF-539 CNS was above 100 µM each time.

Consider `COc1ccc2c(c1)c(-c1nc(-c3cn(C)c4ncccc34)cs1)cn2CCCCN1CCCCC1`, for which the GI50 with ACHN renal was 1.65 µM; in the assay with BT-549 breast, 1.64 µM; in the assay on NCI-H23 lung, 1.75 µM; with SK-MEL-5 melanoma, 1.71 µM. Further, the TGI with ACHN renal turned out to be 3 µM; in the assay with BT-549 breast it was 3.05 µM; with NCI-H23 lung, 3.28 µM; in the assay on SK-MEL-5 melanoma it was 3.08 µM.

For `COc1cc(CC2c3cc(OC)c(OC)cc3CCN2C)c(C(=O)O)cc1OC` (stereo not given), the TGI in the assay on ACHN renal, with HL-60(TB) leukemia, in the assay with HOP-62 NSCLC, in the assay with NCI-H23 lung, in the assay with NCI-H522 lung and with RPMI-8226 leukemia was above 100 µM each time. The TGI in the assay on SF-539 CNS, in the assay with SK-MEL-5 melanoma and in the assay with UACC-257 melanoma was above 100 µM throughout.

On to `CCOc1ccc(-c2nc3ccc(-c4nc5ccc(N6CCN(C)CC6)cc5[nH]4)cc3[nH]2)cc1OCC`, for which the GI50 was 3.48 µM with ACHN renal; 1.16 µM in the assay with HL-60(TB) leukemia; 2.86 µM in the assay with HOP-62 NSCLC; 1.52 µM in the assay on NCI-H23 lung; 1.16 µM in the assay on NCI-H522 lung; 2.94 µM with RPMI-8226 leukemia. The GI50 in the assay with SF-539 CNS is 1.2 µM; in the assay on SK-MEL-5 melanoma, 1.29 µM; in the assay on UACC-257 melanoma it was 1.33 µM. Besides, the TGI in the assay on ACHN renal is 13.9 µM; in the assay on HL-60(TB) leukemia, 4.7 µM; with HOP-62 NSCLC, 7.52 µM; in the assay on NCI-H23 lung, 4.45 µM; with NCI-H522 lung, 3.8 µM; with RPMI-8226 leukemia it was 13.8 µM. Further, the TGI in the assay on SF-539 CNS was determined as 2.71 µM; in the assay on SK-MEL-5 melanoma, 3.71 µM; in the assay on UACC-257 melanoma it was 4.76 µM.

Regarding `COc1cc(-c2nn(-c3cccc(NC(=O)NCCNC(=O)c4ccccc4)c3)cc2-c2ccncc2)ccc1Cl`, the GI50 is 3.14 µM in the assay on ACHN renal; 2.21 µM in the assay with BT-549 breast; 3.95 µM in the assay with HOP-62 NSCLC; 3.37 µM in the assay with NCI-H23 lung; 1.79 µM with NCI-H522 lung; 0.859 µM with SF-539 CNS. The GI50 with SK-MEL-5 melanoma is 1.55 µM; in the assay on UACC-257 melanoma it was 3.96 µM. Also, the TGI in the assay with ACHN renal was above 100 µM; in the assay on BT-549 breast, 8.05 µM; in the assay with HOP-62 NSCLC, above 100 µM; with NCI-H23 lung it was above 100 µM; in the assay with NCI-H522 lung it was 7.37 µM; in the assay with SF-539 CNS, 7.44 µM. The TGI in the assay on SK-MEL-5 melanoma amounted to 4.06 µM; in the assay with UACC-257 melanoma, 21.1 µM.

With `CCOc1ccc(/C=C/C(=O)c2sc(NNC(C)=O)nc2C)cc1`, the TGI in the assay on ACHN renal, with HL-60(TB) leukemia, with HOP-62 NSCLC, in the assay on NCI-H23 lung, in the assay on NCI-H522 lung and in the assay with RPMI-8226 leukemia was above 100 µM each time. Also, the TGI in the assay with SF-539 CNS, in the assay on SK-MEL-5 melanoma and in the assay on UACC-257 melanoma was above 100 µM throughout.

On to `C=CN(C(=O)N1CCN(c2cc3c(cc2F)c(=O)c(C(=O)O)cn3C2CC2)CC1)c1nc(-c2ccc(C)cc2)cs1`, for which the GI50 is 3.38 µM in the assay with ACHN renal; 0.306 µM with BT-549 breast; 3.49 µM in the assay with HOP-62 NSCLC; 3.12 µM in the assay with NCI-H23 lung; 2.27 µM in the assay on NCI-H522 lung; 0.53 µM in the assay with RPMI-8226 leukemia. In the assay on UACC-257 melanoma, the GI50 was 2.81 µM. In addition, the TGI with ACHN renal is above 100 µM; in the assay on BT-549 breast, 2.11 µM; in the assay with HOP-62 NSCLC, above 100 µM; in the assay on NCI-H23 lung it was 16.1 µM; with NCI-H522 lung, 6.23 µM; in the assay on RPMI-8226 leukemia, above 100 µM. The molecule further gave a TGI in the assay on UACC-257 melanoma of 7.44 µM.
